Measurements published in patent publication US20250361264A1, “PROTEIN MODIFYING REAGENT” (CANON KABUSHIKI KAISHA, priority 2023, published 2025).

What was measured:
silk fibroin powder = target: T1, silk fibroin powder (Bombyx mori, UniProt P05790); experiment: Evaluation of adsorptivity of groups containing aromatic rings to proteins having β-sheet structures; format: binding; conditions: for Adsorption rate to fibroin (%): 0.02 mM, 0.15 mL methanol solution on 10 mg silk fibroin powder, dried, 0.15 mL water, 5 minutes stirring, supernatant absorbance; for Adsorptivity: class of adsorption rate to fibroin
T1 construct: purchased Sigma-Aldrich
Procedure: After distillation of methanol by air-drying, 0.15 mL of water was added. After stirring for 5 minutes, the supernatant was collected. The adsorption rate of groups containing aromatic rings to fibroin was calculated from the concentration of groups containing aromatic rings in the collected supernatant liquid and the change in concentration by absorbance measurement, the adsorptivity of groups containing aromatic rings to proteins having β-sheet structures was evaluated using the following criteria.
“Evaluation A” and “Evaluation B” indicate the level at which groups containing aromatic rings adsorb strongly to proteins having a β-sheet structure, and “Evaluation C” indicates the low adsorptivity of groups containing aromatic rings.
• A: 90% or more • B: 60% or more but less than 90% • C: Less than 60%

fibroin sheet = target: T2, fibroin sheet (Bombyx mori, UniProt P05790); experiment: Color intensity of modified fibroin sheet after peroxidase DAB staining; format: biochemical; conditions: fibroin sheet adsorbed from 0.3 mg/mL solution; DAB staining solution 1.5 μL, 5 minutes; ImageJ; average of five sheets
T2 construct: purchased Sigma-Aldrich
Procedure: To 0.18 g of silk fibroin powder (manufactured by Sigma-Aldrich), 3.82 g of hexafluoro--2 propanol (HFIP) was added, and the mixture was stirred at room temperature using a mix rotor. Thereafter, filtration was performed using a filter (Millex-AP, Millipore) to obtain a 4.5 wt % fibroin solution. Fibroin solution (0.1 mL) was used to prepare and collect a sheet of fibroin fibers on an aluminum dish using an electrospinning device (NANON-03, MECC).
After methanol was added to the collected sheet, methanol was removed and dried overnight. The measurement of the weight of the fibroin sheet cut into 20 mm×40 mm size confirmed that it was 1.25 μg/mm^2 fibroin sheet. […]
To the fibroin sheet modified with Compound 1 obtained in Manufacturing Example 2, a staining solution (1.5 μL) of the peroxidase staining DAB kit (Brown Stain) (manufactured by Nacalai Tesque) was added dropwise and allowed to stand for 5 minutes in a wet box. […] After drying the sheet, the sheet was read by a scanner to acquire image data. The obtained image data were measured for color intensity using ImageJ software. Five sheets were made, and the same evaluation was carried out, and the average value of the color intensity (Color Intensity, hereinafter CI value) was calculated. The calculated CI value was 59.8.

O=C(O)CCOc1ccccc1-c1nc2ccccc2s1 [Compound 4]
Adsorption rate to fibroin (%) (silk fibroin powder): 71% | Adsorptivity (silk fibroin powder): B (60% or more but less than 90%)

HRP: horseradish peroxidase (manufactured by Sigma-Aldrich), unmodified comparison
CI value (average color intensity) (fibroin sheet): 39.5

Compound 1: Thioflavin T acid bound to horseradish peroxidase (HRP); one Thioflavin T acid molecule per HRP molecule
CI value (average color intensity) (fibroin sheet): 59.8

Thioflavin T acid [reference compound]
Adsorption rate to fibroin (%) (silk fibroin powder): 91% | Adsorptivity (silk fibroin powder): A (90% or more)

O=C(O)CCNc1ccc(-c2nc3ccccc3s2)cc1 [Compound 2]
Adsorption rate to fibroin (%) (silk fibroin powder): 79% | Adsorptivity (silk fibroin powder): B (60% or more but less than 90%)
